Legend:
Type in all cases: cell-based
[1] = tested on: p53, p21, MDM2 and PUMA; assay: Accumulation of p53 and p53-dependent gene products in response to VX-680 (western blot, transcript levels); conditions: cells treated with VX-680 (FIG. 8A)
Procedure: (A) Western blots show the accumulation of p53, p21, MDM2 and PUMA proteins. Graphs below represent the quantification of the corresponding transcript levels of the proteins.
(§1) For western blotting, cell extracts were prepared using NP-40 lysis buffer (50 mM Tris-HCl (pH 8.0), 150 mM NaCl, 1% NP-40, 5 mM EDTA supplemented with protease and phosphatase inhibitor cocktails (Sigma).
(§2) Total RNA was isolated using the RNeasy kit (Qiagen, Valencia, Calif., USA). The RNA was quantified using spectrophotometric analysis and used for quantitative real-time PCR. The primers used for each target analyzed are available on request. The RNA Master Power SYBR Green Mix (Roche) was used for quantification of mRNA levels.

[2] = tested on: ATM; assay: ATM / DNA damage checkpoint dependence of VX-680-induced G2 arrest (western blot, DNA FACS profiles)
Procedure: as §1

[3] = tested on: cyclins A2 and B1 mRNAs in wild-type HCT116 cells; assay: qRT-PCR of transcript levels in HCT116 cells treated with VX-680; conditions: VX-680-treated wild-type HCT116 (not in p53−/− or p21−/− cells)
Procedure: It is noteworthy that cyclins A2 and B1 levels remained high in p53−/− and p21−/− cells even after cells were incubated with VX-680 for 48 h, in contrast to that observed in the wild-type cells.
as §2

[4] = tested on: A375, U2OS, A549, HCT116 p53+/+, HCT116 p53−/−, MDA-MB-486 and H1299 cells; assay: Cell cycle distribution (propidium iodide flow cytometry) in a panel of tumor-derived cell lines after VX-680; conditions: 200 nM VX-680; harvested at 24, 48 and 72 h; p53 wild-type, mutant and deleted lines
Procedure: (a) p53-positive cells (A375, U2OS, A549 and HCT116 p53+/+) and (b) p53-compromised cells (HCT116 p53−/−, […] and H1299) were treated with 200 nM VX-680 and harvested at the indicated time points. Analysis of cell cycle distribution using propidium iodide staining was performed using flow cytometry. Representative DNA profiles are shown. DNA content is indicated. No DNA profile was shown for cells that are 100% apoptotic.
p53 has been implicated in a postmitotic G1 checkpoint in response to various mitotic inhibitors. We examined whether this checkpoint is induced after aurora kinase inhibition by VX-680 and whether tetraploidy is suppressed by wild-type p53 functions. Using a panel of commonly used tumor-derived cell lines expressing either wild-type p53, mutant p53 or a deletion at the p53 gene locus (Table 1), we tested the correlation of p53 gene status to VX-680-induced endoreduplication. These cell lines were treated with VX-680, and harvested for cell cycle analysis at 24, 48 and 72 h.

[5] = tested on: MDA-MB 468 and HCT116 p53−/−; assay: Annexin V apoptosis assay, p53-compromised cell lines; conditions: various concentrations of VX-680; MDA-MB 468 and HCT116 p53−/−
Procedure: (§3) Cells were then harvested and stained for annexin V to detect apoptotic cells.
(§4) For analysis of apoptosis, cells were harvested without fixation. Apoptosis was evaluated using the annexin V (fluorescein isothiocyanate (FITC))-propidium iodide binding assay (Roche, Indianapolis, Ind., USA). The extent of apoptosis was quantified as a percentage of annexin V-positive cells over the total cell population. Flow cytometric analysis was performed on a BD LSR II System (BD Biosciences, Stockholm, Sweden). Data were analyzed using FlowJo software and ModFit LT (Verity Software House, Topsham, Me., USA).

[6] = tested on: HCT116 p53−/− cells; assay: Cell cycle analysis of HCT116 p53−/− cells (nutlin-3, VX-680); conditions: 200 nM VX-680, later time points (40 and 48 h), compared with p53+/+
Procedure: (a) is a comparison of the DNA profiles of P53+/+ and p53−/− cells after treatment with VX-680. HCT116 p53+/+ and p53−/− cells were incubated with 200 nM VX-680 and cells were harvested at the indicated time points for analysis of cell cycle distribution.
(b) is a comparison of the DNA profiles of p53+/+ and p53−/− cells with pre-treatment of Nutlin before incubation with VX-680.

[7] = tested on: A375 and HCT116 p53+/+; assay: Annexin V apoptosis assay, p53-positive cell lines; conditions: various concentrations of VX-680
Procedure: as §3, §4

In the case of `Cc1cc(Nc2cc(N3CCN(C)CC3)nc(Sc3ccc(NC(=O)C4CC4)cc3)n2)[nH]n1` [VX-680, cyclopropane carboxylic acid of {4-[4-(4-methyl-piperazin-1-yl)-6-(5-methyl-2H-pyrazol-3-ylamino)-pyrimidin-2-ylsulphanyl]-phenyl}-amide], the p53 activation [1] is reported as “p53 was activated”, the “p53 target genes p21, PUMA and MDM2” value [1] is reported as “all upregulated” and the “p53 phosphorylation on Ser15” value ([2]; VX-680-treated cells) is reported as “without detectable phosphorylation on Ser15”. For the same compound, the “activation of ATM (Ser1981 phosphorylation)” value ([2]; low concentrations of VX-680) was “did not induce activation of ATM”, the “cyclins A2 and B1 mRNAs” value [3] was “greatly reduced” and the endoreduplication [4] was “all tumor cell lines undergo endoreduplication”. For the same compound, the “apoptosis (annexin V)” value [5] was “underwent apoptosis”, the endoreduplication [6] was “Increased endoreduplication” and the “apoptosis (annexin V)” value [7] was “underwent apoptosis”.

Source: patent US20130344140A1, “NOVEL PHARMACEUTICAL COMBINATIONS AND METHODS FOR TREATING CANCER” (Agency for Science, Technology and Research, priority 2011, published 2013)
